Assay results taken from US4232035A, “Carbamate pesticidal compounds compositions and methods of use” (priority 1975, dated 1980).

Experiments:
[1] = tested on: Mexican bean beetle (Epilachna varivestis, Muls.); test: Mexican Bean Beetle Leaf Spray Test; type: in vivo; design: key: A: excellent control; B: partial control; C: no control; details: 500 parts per million leaf spray; fourth instar larvae; three days
Protocol: (§1) Suspensions of the test compounds were prepared by dissolving one gram of compound in 50 milliliters of acetone in which had been dissolved 0.1 gram (10 percent of the weight of compound) of an alkylphenoxy polyethoxyethanol surfactant, as an emulsifying or dispersing agent. The resulting solution was mixed into 150 milliliters of water to give roughly 200 milliliters of a suspension containing the compound in finely divided form. The thus-prepared stock suspension contained 0.5 percent by weight of compound. The test concentrations in parts per million by weight employed in the tests described hereinbelow were obtained by appropriate dilutions of the stock suspension with water. The test procedures were as follows:
Fourth instar larvae of the Mexican bean beetle (Epilachna varivestis, Muls.), reared on Tendergreen bean plants at a temperature of 80°±5° F. and 50±5 percent relative humidity, were the test insects.
The test compounds were formulated by diluting the stock suspension with water to give a suspension containing 500 parts of test compound per million parts of final formulation. Potted Tendergreen bean plants of standard height and age were placed on a revolving turntable and sprayed with 100-110 milliliters of test compound formulation by use of a DeVilbiss spray gun set at 10 psig air pressure. This application, which lasted 25 seconds, was sufficient to wet plants to run-off. As a control, 100-110 milliliters of a water-acetone-emulsifier solution containing no test compound were also sprayed on infested plants. When dry, the paired leaves were separated and each was placed in a 9 centimeter Petri dish lined with moistened filter paper. Five randomly selected larvae were introduced into each dish, and the dishes were closed. The closed dishes were labeled and held at a temperature of 80°±5° F. for three days. Although the larvae could easily consume the leaf within 24 to 48 hours, no more food was added. Larvae which were unable to move the length of the body, even upon stimulation, were considered dead.

[2] = tested on: southern armyworm (Prodenia eridania, (Cram.)); test: Southern Armyworm Leaf Spray Test; type: in vivo; design: key: A: excellent control; B: partial control; C: no control; details: 500 parts per million leaf spray; three days
Protocol: as §1
Larvae of the southern armyworm (Prodenia eridania, (Cram.)), reared on Tendergreen bean plants at a temperature of 80°±5° F. and a relative humidity of 50±5 percent, constituted the test insects.
The test compounds were formulated by diluting the stock suspension with water to give a suspension containing 500 parts of test compound per million parts of final formulation. Potted Tendergreen bean plants of standard height and age were placed on a revolving turntable and sprayed with 100-110 milliliters of test compound formulation by use of a DeVilbiss spray gun set at 10 psig air pressure. This application, which lasted 25 seconds, was sufficient to wet plants to run-off. As a control, 100-110 milliliters of a water-acetone-emulsifier solution containing no test compound were also sprayed on infested plants. When dry, the paired leaves were separated and each one was placed in a 9 centimeter Petri dish lined with moistened filter paper. Five randomly selected larvae were introduced into each dish and the dishes were closed. The closed dishes were labeled and held at 80°-85° F. for three days. Although the larvae could easily consume the whole leaf within twenty-four hours, no more food was added. Larvae which were unable to move the length of the body, even upon stimulation by prodding, were considered dead. Percent mortality was recorded for various concentration levels.

[3] = tested on: bean aphid (Aphis fabae Scop.); test: Bean Aphid Foliage Spray Test; type: in vivo; design: key: A: excellent control; B: partial control; C: no control; details: 500 parts per million foliage spray; 24 hour holding period
Protocol: as §1
Adults and nymphal stages of the bean aphid (Aphis fabae Scop.) reared on potted dwarf nasturtium plants at 65°-70° F. and 50-70 percent relative humidity, constituted the test insects. For testing purposes, the number of aphids per pot was standardized to 100-150 by trimming plants containing excess aphids.
The test compounds were formulated by diluting the stock suspension with water to give a suspension containing 500 parts of test compound per million parts of final formulation.
The potted plants (one pot per compound tested) infested with 100-150 aphids, were placed on a revolving turntable and sprayed with 100-110 milliliters of test compound formulation by use of a DeVilbiss spray gun set at 40 psig. air pressure. This application, which lasted 25 seconds, was sufficient to wet the plants to run-off. As a control, 100-110 milliliters of a water-acetone-emulsifier solution containing no test compound were also sprayed on infested plants. After spraying, the pots were placed on their sides on a sheet of white standard mimeograph paper which had been previously ruled to facilitate counting. Temperature and humidity in the test room during the 24 hour holding period were 65°-70° F. and 50-70 percent, respectively. Aphids which fell onto the paper and were unable to remain standing after being uprighted were considered dead. Aphids remaining on the plants were observed closely for movement and those which were unable to move the length of the body upon stimulation by prodding were considered dead. Percent mortality was recorded for various concentration levels.

[4] = Peroral toxicity to mammals (rat); details: in vivo, po, mortality rate of 50 percent, read-out: A.O. Rat LD50
Protocol: Certain of these compositions were also evaluated to determine their peroral toxicity to mammals. The animal selected for this experiment was the rat. The test results obtained are expressed in terms of the number of milligrams of compositions per kilogram of weight of the animal required to achieve a mortality rate of 50 percent (LD50).

[5] = tested on: two-spotted mite (Tetranychus urticae Koch); test: Mite Foliage Spray Test; type: in vivo; design: key: A: excellent control; B: partial control; C: no control; details: 500 parts per million foliage spray; six days
Protocol: as §1
Adults and nymphal stages of the two-spotted mite (Tetranychus urticae Koch), reared on Tendergreen bean plants at 80±5 percent relative humidity, were the test organisms. Infested leaves from a stock culture were placed on the primary leaves of two bean plants six to eight inches in height, growing in a two-and-a-half inch clay pot. 150-200 Mites, a sufficient number for testing, transferred from the excised leaves to the fresh plants in a period of twenty four hours. Following the twenty four hour transfer period, the excised leaves were removed from the infested plants. The test compounds were formulated by diluting the stock suspension with water to give a suspension containing 500 parts of test compound per million parts of final formulation. The potted plants (one pot per compound) were placed on a revolving turntable and sprayed with 100-110 milliliters of test compound formulation by use of a DeVilbiss spray gun set at 40 psig. air pressure. This application, which lasted 25 seconds, was sufficient to wet the plants to run-off. As a control, 100-110 milliliters of a water solution containing acetone and emulsifier in the same concentrations as the test compound formulation, but containing no test compound, were also sprayed on infested plants. The sprayed plants were held at 80±5 percent relative humidity for six days, after which a mortality count of motile forms was made. Microscopic examination for motile forms was made on the leaves of the test plants. Any individual which was capable of locomotion upon prodding was considered living.

| Compound | M. Bean Beetle, pesticidal activity rating [1] | S. Armyworm, pesticidal activity rating [2] | Aphid, pesticidal activity rating [3] | LD50 [4] [mg/kg] | Mite, pesticidal activity rating [5] |
| --- | --- | --- | --- | --- | --- |
| CN(SSC(C)(C)C)C(=O)ON=C1SC(C)(C)C(=O)N1C | A | A | A | 299 | C |
| CN(SSC(C)(C)C)C(=O)ON=C1SCCS1 | A | A | A | 5.6 | C |
